Experimental data reported in patent US12435032B2, “L-γ-methyleneglutamine compounds and methods of use” (University of Mississippi, priority 2019, dated 2025).
Where two headings read alike, the source gives them in different places.

Legend:
[1] = system: MCF-7 (ER+/PR+/HER2−) breast cancer cells; assay: Growth inhibition of MCF-7 cells (Hoechst 33342 fluorescence vs non-treated wells); assay type: cell-based; settings: Homo sapiens, dose-response 0.32-320 μM
Experimental: (§1) Olaparib was chosen because it is one of a few FDA-approved chemotherapeutics for triple-negative breast cancer.
(§2) Cells were incubated for 15 minutes at 37° C.

[2] = system: triple-negative MDA-MB-231 breast cancer cells; assay: Growth inhibition of MDA-MB-231 cells; assay type: cell-based; settings: dose-response 0.32-320 μM; for IC50: Homo sapiens
Experimental: as §1, §2

[3] = system: triple-negative MDA-MB-231 breast cancer cells; assay: cells; settings: Homo sapiens, read-out: Cytotoxicity EC50
[4] = system: MCF-7 breast cancer cells; assay: Cytotoxicity (cell death, propidium iodide) in MCF-7 cells; assay type: cell-based; settings: Homo sapiens, MCF7, dose-response 0.32-320 μM, read-out: Cytotoxicity EC50
[5] = Cytotoxicity (cell death, propidium iodide) in MCF-10A cells; assay type: cell-based; settings: human, MCF-10A non-cancerous breast cells
Experimental: To assess the selectivity of cytotoxicity for cancer cells, all drugs and compounds were screened against MCF-10A, non-cancerous breast cells.
as §2

[6] = system: SK-BR-3 breast cancer cells; assay: Cytotoxicity (cell death, propidium iodide) in SK-BR-3 cells; assay type: cell-based; settings: for EC50: Homo sapiens, dose-response 0.32-320 μM
[7] = system: SK-BR-3 (ER−/PR−/HER2+) breast cancer cells; assay: Growth inhibition of SK-BR-3 cells; assay type: cell-based; settings: Homo sapiens, dose-response 0.32-320 μM
Experimental: as §1, §2

[8] = system: triple-negative MDA-MB-231 breast cancer cells
[9] = system: MCF-10A non-cancerous breast cells; assay: Growth inhibition of MCF-10A cells (negative control line); assay type: cell-based; settings: Homo sapiens, dose-response 0.32-320 μM
Experimental: as §1, §2

In the case of `C=C(C[C@H](N)C(=O)O)C(=O)Nc1ccccc1` [Compound 3, (S)-2-amino-4-(phenylcarbamoyl) pent-4-enoic acid], the IC50 ([1]; MCF7, 24 h, MCF-7, 24 h exposure) is reported as > 1000 µM, the IC50 ([1]; MCF7, 72 h, MCF-7, 72 h exposure) is reported as 250 µM and the IC50 ([2]; MDA-MB-231, 24 h exposure) is reported as 777 µM. The IC50 ([2]; MDA-MB-231, 72 h exposure) was 814 µM, the “Growth Inhibition IC50” value ([2]; MDA-MB-231, 72 h exposure) was “poorer potency than olaparib” and the EC50 ([3]; MDA-MB-231, 24 h) was 541 µM. For the same compound, the EC50 ([3]; MDA-MB-231, 72 h) was 409 µM, the EC50 ([4]; MCF-7, 24 h exposure) was 421 µM and the EC50 ([4]; MCF-7, 72 h exposure) was 2 µM. For the same compound, the EC50 at 24 h ([5]; 24 h exposure) was > 1000 µM, the EC50 at 24 h ([5]; head prints 24 h) was > 1000 µM and the EC50 ([6]; SK-BR-3, 24 h exposure) was 0.2 µM. For the same compound, the EC50 ([6]; SK-BR-3, 72 h exposure) was > 1000 µM, the “cytotoxicity EC50” value ([6]; SK-BR-3, 72 h / after the first 24 h) was “much reduced toxicity” and the IC50 ([7]; SK-BR-3, 24 h exposure) was 36.9 µM. For the same compound, the IC50 ([7]; SK-BR-3, 72 h exposure) was 1.7 µM, the “cytotoxic EC50 compared with positive controls” value [8] was “significantly greater than tamoxifen” and the IC50 ([9]; 24 h exposure) was > 1000 µM. For the same compound, the IC50 ([9]; 72 h exposure) was > 1000 µM.
